The values that follow come from US20240226083A9, “MEDICAMENT FOR TREATMENT AND/OR PROPHYLACTIC TREATMENT OF CANCERS” (Belina Pharma AB, priority 2019, published 2024).

Structures are written as SMILES.

Assay [1] has as its system breast cancer. The conditions noted are these: earlier filing, in words; cited from earlier work.
Assay [2] concerns breast cancer. In words: Swedish nation-wide register study, cancer specific survival of antihistamine users vs non-users: breast cancer. The class given is in vivo, human. The conditions noted are these: in words. The procedure: (§1) Both peri- and post-diagnostic antihistamine use was analyzed, using Cox regression models, as well as different subgroups of patients with regard to age, gender (as a proxy for sex) and tumor status.
(§2) Material and methods Linking the Cancer Registry with the Drug Prescription Registry and Cause of Death Registry the survival of over 500 000 cancer patients with cancer in the breast-, prostate, ventrikel, pancreas, kidney, colo-rectal, lung, uterus, ovary, brain, melanoma, lymph gland and bone marrow was studied between 2005-2014.
Use of the six major antihistamines was established using the Swedish Prescribed Drug Register, a record of all dispensed prescribed pharmaceuticals in Sweden since July 1st 2005. To be included in the registry at least 2 weeks of prescription is required. […] Causes of death were obtained from the Swedish Cause of Death Register, a database where all deaths have been recorded since 1952. […]
We analyzed both the peri- and cumulative post-diagnostic use of antihistamines among melanoma patients. […]
(§3) For the cumulative post-diagnostic antihistamine use analysis, mortality rates for antihistamine users were compared to those of non-users through a Cox regression model allowing for time varying covariates, and survival time was measured in years since diagnosis. […] The impact of the cumulative DDDs was assessed after log transformation of the DDDs plus one3. […]

The test system of assay [3] is patients with gastric cancer. In words: Swedish nation-wide register study, cancer specific survival of antihistamine users vs non-users: gastric cancer. In kind it is in vivo, human. The conditions noted are these: for effect of use on gastric cancer survival: users vs non-users, in words. Here is the method:
as §1, §2
(§4) Use of the six major antihistamines was established using the Swedish Prescribed Drug Register, a record of all dispensed prescribed pharmaceuticals in Sweden since July 1st 2005. To be included in the registry at least 2 weeks of prescription is required. Prescription free antihistamine use, non-dispensed doses, or use of other, less common, types of antihistamines is here considered non-use. Causes of death were obtained from the Swedish Cause of Death Register, a database where all deaths have been recorded since 1952. Data was pseudo-anonymized and the study was approved by the Regional Ethics Board.
(§5) We analyzed both the peri- and cumulative post-diagnostic use of antihistamines among […]. Peri-diagnostic use was a proxy for ever-use, and is here defined as use within six months pre-diagnosis and six months post-diagnosis, where the main antihistamine (in terms of dispensed defined daily doses, or DDDs) used by each individual during this time was identified. The analysis was done using a Cox regression model with time to even or censoring in years as a time scale. Subgroup analyses were made for groups based on age and gender (as a proxy for sex).
as §3

The test system of assay [4] is patients with pancreatic cancer. In words: Swedish nation-wide register study, cancer specific survival of antihistamine users vs non-users: pancreatic cancer. In kind it is in vivo, human. The conditions noted are these: for effect of use on pancreatic cancer survival: users vs non-users, in words. Here is the method:
as §1, §2, §4, §5, §3

The subject of assay [5] is patients with ovarian cancer. Nature of the assay: Swedish nation-wide register study, cancer specific survival of antihistamine users vs non-users: ovarian cancer. The class given is in vivo, human. The conditions noted are these: for effect of use on ovarian cancer survival: users vs non-users, in words. Here is the method:
as §1, §2, §4, §5
(§6) For the cumulative post-diagnostic antihistamine use analysis, mortality rates for antihistamine users were compared to those of non-users through a Cox regression model allowing for time varying covariates, and survival time was measured in years since diagnosis. This allowed for a single individual to provide data as both a non-user and user of different antihistamines. The impact of the cumulative DDDs was assessed after log transformation of the DDDs plus one3. Cox regression analyses were stratified for patient age at diagnosis, tumor size and node status (T and N status, respectively). A lag-time analysis was performed as described by Tamim et al. and Richardson et al. Statistical analyses were performed using R version XXX6.
(§7) Information on stage, socio-economic factors, tumour therapies, and prognostic tumour factors are not present in the national registries.
(§8) The confidence interval (95% CI) indicates the level of uncertainty around the measure of effect. A 95% confidence interval means that the confidence interval covers the true value in 95 of 100 studies performed. […]

The test system of a further assay is all tumour types. Nature of the assay: Swedish nation-wide register study, cancer specific survival of antihistamine users vs non-users: across tumour types. In kind it is in vivo, human. The conditions noted are these: for effect of use on survival, all tumour types: users vs non-users, in words. Here is the method:
as §1, §2, §4, §5, §6, §7, §8

Assay [6] relates to lympho-hematopoetic malignancies. In words: Swedish nation-wide register study, cancer specific survival of antihistamine users vs non-users: lympho-hematopoetic malignancies. The class given is in vivo, human. The conditions noted are these: in words.
Method: (§9) For the cumulative post-diagnostic antihistamine use analysis, mortality rates for antihistamine users were compared to those of non-users through a Cox regression model allowing for time varying covariates, and survival time was measured in years since diagnosis. This allowed for a single individual to provide data as both a non-user and user of different antihistamines. The impact of the cumulative DDDs was assessed after log transformation of the DDDs plus one3. Cox regression analyses were stratified for patient age at diagnosis, tumor size and node status (T and N status, respectively). […]
Assay [7] concerns patients with Hodgkin's disease. Nature of the assay: Swedish nation-wide register study, cancer specific survival of antihistamine users vs non-users: Hodgkin's disease. The class given is in vivo, human.
In assay [8] the test system is patients with prostate cancer. In words: Swedish nation-wide register study, cancer specific survival of antihistamine users vs non-users: prostate cancer. The class given is in vivo, human. The conditions noted are these: in words.
Method: as §9
Assay [9] has as its system patients with uterus cancer. Nature of the assay: Swedish nation-wide register study, cancer specific survival of antihistamine users vs non-users: uterine cancer. The class given is in vivo, human. The conditions noted are these: in words.
In assay [10] the test system is patients with lung cancer. In words: Swedish nation-wide register study, cancer specific survival of antihistamine users vs non-users: lung cancer. The class given is in vivo, human.
Assay [11] relates to patients with colo-rectal cancer. In words: Swedish nation-wide register study, cancer specific survival of antihistamine users vs non-users: colorectal cancer. The class given is in vivo, human.
Assay [12] deals with patients with brain cancer. In words: Swedish nation-wide register study, cancer specific survival of antihistamine users vs non-users: brain cancer. In kind it is in vivo, human. The conditions noted are these: in words.

Turning to `CC(C)(C)c1ccc(C(=O)CCCN2CCC(OC(c3ccccc3)c3ccccc3)CC2)cc1` [Ebastine, ebastine], the “effect on breast cancer survival (WO 2016/116438)” value with breast cancer [1] was “positive effect”. In the assay on breast cancer [2], the “effect of use on breast cancer survival” value is given as “increased breast cancer survival”.
Regarding `O=C(O)COCCN1CCN(C(c2ccccc2)c2ccc(Cl)cc2)CC1` (stereo not shown) [Ceterizine, cetirizine], in [3], the “effect of use on gastric cancer survival” value was “better survival”. Moreover, the “effect of use on pancreatic cancer survival” value in assay [4] is “better survival”. The “effect of use on ovarian cancer survival” value in assay [5] is “better survival”.
For `CN1CCC[C@@H]1CCO[C@](C)(c1ccccc1)c1ccc(Cl)cc1` [Clemastine, clemastine], the “effect of use on survival, all tumour types” value with all tumour types is listed as “consistently showed a worse survival”.
The same measure, in the same setting: next, `CC(C)(C(=O)O)c1ccc(C(O)CCCN2CCC(C(O)(c3ccccc3)c3ccccc3)CC2)cc1` (stereo not shown) [fexofenadine]: “insignificant”.
Take `CCOC(=O)N1CCC(=C2c3ccc(Cl)cc3CCc3cccnc32)CC1` [loratadine]: the “course of survival curves relative to non-users” value with all tumour types (FIGS. 7 to 18, in words) is listed as “most survival curves became parallel to non-users suggesting a long time curative effect”. In addition, in assay [5], the “effect of use on ovarian cancer survival” value is on record as “survival was better”.
With `Clc1ccc2c(c1)CCc1cccnc1C2=C1CCNCC1` [desloratadine], the “effect of use on survival in lympho-hematopoetic malignancies” value in [6] is reported as “no effect”. Moreover, the “5 year survival chance increased by (Hodgkin's disease)” value in [7] (Hodgkin's disease, baseline 5 year survival about 86% 2016, FIG. 1) was 17%. Also, in [7] (users vs non-users, in words), the “effect of use on Hodgkin's disease survival” value is listed as “strong survival benefit”. Further, the “effect of use on prostate cancer survival” value in [8] is “consistently beneficial effect”. In [3] (gastric cancer, baseline 5 year survival 25% 2016, FIG. 1), the “5 year survival chance increased by (gastric cancer)” value came out at 30%. In addition, the “effect of use on gastric cancer survival” value in assay [3] was “consistently beneficial effect”. Further, the “effect of use on uterine cancer survival” value in [9] is listed as “no effect”. The “effect on breast cancer survival (WO 2016/116438)” value in the assay on breast cancer [1] was “positive effect”. In [4] (pancreatic cancer, baseline 5 year survival about 8% 2016, FIG. 1), the “5 year survival chance increased by (pancreatic cancer)” value is 35%. In addition, in assay [4], the “effect of use on pancreatic cancer survival” value is given as “consistently beneficial effect”. The “effect of use on breast cancer survival” value with breast cancer [2] is reported as “consistently beneficial effect”. Moreover, the “curative effect suggested by survival curves” value in the assay with all tumour types (said cancers, survival curves with follow up parallel to non-treated, FIGS. 7 to 18) is given as 10-20%. The “5 year survival chance increased by (lung cancer)” value in assay [10] (lung cancer, baseline 5 year survival about 20% 2016, FIG. 1) amounted to 15%. In addition, in [10] (users vs non-users, in words), the “effect of use on lung cancer survival” value is “consistently beneficial effect”. In [11] (colorectal cancer, baseline 5 year survival about 65% 2016, FIG. 1), the “5 year survival chance increased by (colorectal cancer)” value is on record as 15%. Besides, in assay [11] (users vs non-users, in words), the “effect of use on colorectal cancer survival” value was “consistently beneficial effect”. For the same compound, in assay [12], the “effect of use on brain cancer survival” value is “no effect”. Moreover, the “5 year survival chance increased by (ovarian cancer)” value in assay [5] (ovarian cancer, baseline 5 year survival about 55% 2016, FIG. 1) was determined as 17%. In assay [5], the “effect of use on ovarian cancer survival” value is on record as “consistently beneficial effect”.
